Each block holds one molecule with its values, some of them ahead of it.
Columns and labels:
[1] = biological target: T1, collagen solution (KAI, pH 7, PB buffer) (Bos taurus, UniProt P02453+P02465); experiment: Influence of various sugars on gelation (fibrillogenesis time) of 3% collagen solution (Reference Example 3(1)); assay type: physicochemical; conditions: collagen 3% [w/v]; sugar 0.05 to 0.5 M (monosaccharide), 0.05 to 0.25 M (disaccharide), 0.05 M raffinose, 0.05, 0.125 M stachyose; without degassing
T1 construct: atelocollagen obtained by treatment with a protease such as pepsin; KAI
Protocol: • (1) The kind and concentration of a sugar to be added were changed, and an ability of the sugar to suppress the gelation of a collagen solution was confirmed by measuring a fibrillogenesis time.
The collagen was prepared so that the final concentration was 3% [w/v]. KAI (pH 7, PB buffer) was used as the collagen. The kinds and final concentrations of the used sugars are as described below. • (i) Monosaccharide: Glucose or Fructose
0.05, 0.125, 0.25, 0.5 M • (ii) Disaccharide: sucrose or maltose
0.05, 0.125, 0.25 M • (iii) Trisaccharide: raffinose
0.05 M • (iv) Tetrasaccharide: stachyose
It should be noted that, in this reference example, measurements were carried out without degassing.

[2] = biological target: T1, collagen solution (KAI, pH 7, PB buffer); experiment: Influence of maltotetraose and maltopentaose on gelation of collagen solution (Reference Example 4); assay type: physicochemical; conditions: collagen 3% [w/v]; sugar 0.05, 0.125 M
Protocol: The kind and concentration of a sugar to be added were changed, and an ability of the sugar to suppress the gelation of a collagen solution was confirmed by measuring a fibrillogenesis time.
The collagen was prepared so that the final concentration was 3% [w/v]. KAI (pH 7, PB buffer) was used as the collagen. The kinds and final concentrations of the used sugars are as described below. • (i) Tetrasaccharide: maltotetraose
0.05, 0.125 M • (ii) Pentasaccharide: maltopentaose

[3] = biological target: T2, collagen solution (KOKEN ATELOCOLLAGEN IMPLANT) (Bos taurus, UniProt P02453+P02465); experiment: Influence of sucrose, glucose and glucuronic acid on gelation of collagen solution (Reference Example 7); assay type: physicochemical; conditions: sugar 0.01 M, collagen 3% [w/v], pH 7.4, 37° C., absorbance at 400 nm
T2 construct: atelocollagen obtained by treatment with a protease such as pepsin; purchased KOKEN CO., LTD; KOKEN ATELOCOLLAGEN IMPLANT
Protocol: The following sugars were used as sugars to be added, and an ability of the sugar to suppress the gelation of a collagen solution was confirmed by measuring a fibrillogenesis time.
Monosaccharides: Glucose and Glucuronic Acid
(§1) Each of various sugar solutions was added to a collagen solution (pH 7.4, final concentration: 3% [w/v]) (KOKEN ATELOCOLLAGEN IMPLANT [KOKEN CO., LTD.]) so that the final concentration was 0.01 M, followed by mixing. The mixed solution was measured for its time-dependent change in absorbance at 400 nm with a spectrophotometer while being heated at 37° C.

KS collagen solution = experiment: Influence of tetrasaccharide on gelation of 0.4% collagen solution (Reference Example 3(2)); assay type: physicochemical; conditions: collagen 0.4% [w/v], pH 7; 0.05 M stachyose
From the text: (2) The influence of a tetrasaccharide on a gelation ability was confirmed in the same manner as in the above-mentioned method (1) except that: the concentration of the collagen was changed to 0.4% [w/v]; and KS collagen (pH 3) adjusted to pH 7 with a neutralization liquid (7% [w/v] Na2HPO4, 0.9% [w/v] NaCl) was used as the collagen solution. 0.05 M stachyose was used as the tetrasaccharide in the same manner as in the method (1).

[4] = biological target: T2, collagen solution (KOKEN ATELOCOLLAGEN IMPLANT); experiment: Spectroscopic evaluation of influence of sugar on gelation ability of collagen solution (Reference Example 1); assay type: physicochemical; conditions: sucrose 0.01 or 0.25 M in collagen 3% [w/v], pH 7.4, 37° C., absorbance at 400 nm
Protocol: as §1, with “Specifically, a sucrose solution” for “Each of various sugar solutions”, “(product name: KOKEN” for “(KOKEN”, “IMPLANT)” for “IMPLANT [KOKEN CO., LTD.])”, “0, 0.01, or 0.25” for “0.01”

Type II atelocollagen = biological target: T3, Type II atelocollagen (Bos taurus, UniProt P02459); experiment: Spectroscopic evaluation of influence of sugar on gelation of various collagen solutions (Reference Example 2); assay type: physicochemical; conditions: 0.25 M sucrose, 1×PBS, 37° C., absorbance at 400 nm, 3 hours
T3 construct: atelocollagen obtained by treatment with a protease such as pepsin; purchased CL-22, Lot; 622052
Protocol: (§2) The influences of a sugar on the gelation abilities (fibrillogenic abilities) of various collagen solutions were investigated.
(§3) First, various collagens were each diluted to 0.2% [w/v] with 1 mM HCl. The various collagens used were as follows. • Type I atelocollagen (3.5% KAI: bovine, Lot. 1-107, pH 7) • Type I atelocollagen (3% KAI: porcine, stock of the laboratory, pH 7) • Type II atelocollagen (CL-22, Lot. 622052, pH 3) • Type III atelocollagen (NIP, 0.3% PSC-3-100-20, Lot. BSP310G001, 5 mM acetic acid) • Type I native collagen (1% 1-AC, Lot. 6002173, pH 3) • Shark atelocollagen (produced in the laboratory, powder, stored at −30° C.)
(§4) Distilled water (OTSUKA DISTILLED WATER, Cat. 1324, Lot. 0J90N), 2.5 M sucrose (Wako Pure Chemical Industries, Ltd., Cat. 196-00015, Lot. CKM1674), 100 mg/mL lysozyme (Tokyo Chemical Industry Co., Ltd., Cat. L072), and 10×PBS (DULBECCO′PBS, Dainippon Sumitomo Pharma Co., Ltd., Cat. 28-103-05 FN, Lot. 896458) were added to each of the various collagen solutions at 0.2% [w/v] to prepare a solution having final concentrations of 0.2% [w/v] collagen/0.25 M sucrose/10 mg/mL lysozyme/1×PBS. At this time, the ingredients were added so that the collagen, distilled water, sucrose, lysozyme, and PBS were mixed in this order.
(§5) 100 μl of each of the prepared samples were added to a 96-well microplate and measured for its time-dependent change in absorbance at 400 nm (measurement interval: 30 seconds, measurement time: 3 hours) with an optical absorption microplate reader (TECAN, SUNRISE Thermo RC-R) while heated at 37° C. An average of the measured values (n=3) at the respective times was calculated.

Type I native collagen = biological target: T4, Type I native collagen (Bos taurus, UniProt P02453+P02465); experiment: as above; assay type: physicochemical; conditions: 0.25 M sucrose, 1×PBS, 37° C., absorbance at 400 nm, 3 hours
T4 construct: Type I native collagen (1% 1-AC, Lot. 6002173, pH 3); purchased 1-AC, Lot; 6002173
Protocol: as §2, §3, §4, §5

Shark atelocollagen = experiment: as above; assay type: physicochemical; conditions: 0.25 M sucrose, 1×PBS, 37° C., absorbance at 400 nm, 3 hours
Protocol: as §2, §3, §4, §5

Type III atelocollagen = biological target: T5, Type III atelocollagen (Bos taurus, UniProt P04258); experiment: as above; assay type: physicochemical; conditions: 0.25 M sucrose, 1×PBS, 37° C., absorbance at 400 nm, 3 hours
T5 construct: atelocollagen obtained by treatment with a protease such as pepsin; purchased NIP PSC-3-100-20, Lot; BSP310G001
T5 sequence (P04258 15-1040 limits assumed): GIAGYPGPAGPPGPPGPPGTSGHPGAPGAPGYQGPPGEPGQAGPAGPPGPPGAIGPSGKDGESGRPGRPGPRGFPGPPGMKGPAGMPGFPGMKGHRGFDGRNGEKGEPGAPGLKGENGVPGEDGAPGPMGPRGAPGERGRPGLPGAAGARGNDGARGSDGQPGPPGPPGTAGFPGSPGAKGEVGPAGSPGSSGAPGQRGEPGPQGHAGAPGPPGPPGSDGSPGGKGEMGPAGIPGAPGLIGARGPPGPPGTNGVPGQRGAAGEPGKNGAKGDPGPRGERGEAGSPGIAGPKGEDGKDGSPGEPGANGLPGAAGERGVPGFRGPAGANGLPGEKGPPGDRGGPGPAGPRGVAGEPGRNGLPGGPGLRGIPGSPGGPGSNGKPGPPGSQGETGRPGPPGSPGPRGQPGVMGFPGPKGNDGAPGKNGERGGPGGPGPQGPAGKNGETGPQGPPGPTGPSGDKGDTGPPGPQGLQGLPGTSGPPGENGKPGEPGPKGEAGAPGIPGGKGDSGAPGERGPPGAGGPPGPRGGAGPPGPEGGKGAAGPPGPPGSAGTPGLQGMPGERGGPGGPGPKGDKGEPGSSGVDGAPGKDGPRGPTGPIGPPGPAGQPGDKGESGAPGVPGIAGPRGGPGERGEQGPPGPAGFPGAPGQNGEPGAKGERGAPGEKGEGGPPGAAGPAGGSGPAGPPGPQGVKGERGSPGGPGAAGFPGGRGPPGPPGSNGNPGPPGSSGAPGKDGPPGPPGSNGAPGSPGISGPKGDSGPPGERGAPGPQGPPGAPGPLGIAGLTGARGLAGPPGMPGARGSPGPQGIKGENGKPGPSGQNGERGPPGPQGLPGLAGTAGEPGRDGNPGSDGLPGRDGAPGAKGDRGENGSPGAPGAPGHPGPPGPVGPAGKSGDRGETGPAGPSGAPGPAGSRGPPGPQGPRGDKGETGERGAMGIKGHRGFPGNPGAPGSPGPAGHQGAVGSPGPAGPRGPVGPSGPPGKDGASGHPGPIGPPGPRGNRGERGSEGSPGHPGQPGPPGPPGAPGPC
Protocol: as §2, §3, §4, §5

Type I atelocollagen = experiment: as above; assay type: physicochemical, bovine, porcine; conditions: 0.25 M sucrose, 1×PBS, 37° C., absorbance at 400 nm, 3 hours
Protocol: as §2
as §3, with “C.) […]” for “C.)”
as §5

[5] = In vivo drug sustained-release ability of thyroglobulin formulation (Example 11); conditions: thyroglobulin (669 kDa) with atelocollagen 3% [w/v], sucrose 0.25 M; 100 μL subcutaneous in mice; afterwards low sustained-release rate
From the text: The sustained-release amount of thyroglobulin was quantitatively measured by HPLC in a time-dependent manner.
3.5% [w/v] atelocollagen Lot. I-175, Kasai Lac, 2.5 M sucrose, and a 100-mg protein solution were mixed at a blending ratio of 8:1:1. First, syringes filled with atelocollagen and sucrose were connected in series on ice, followed by thorough mixing by reciprocation 50 times. The mixed liquid was mixed with the protein solution by syringe reciprocation 50 times immediately before subcutaneous injection into mice.
The mice were purchased from Japan SLC, Inc. ICR strain female mice were purchased at 7-week-old 1 week before use and used at 8-week old. The collagen mixed liquid was injected into three sites in an amount of 100 μL per site (n=3). Each of samples after 0, minutes, 30 minutes, 45 minutes, 1 hour, 3 hours, 6 hours, and 12 hours was extirpated and heated to 80° C. in an Eppendorf tube so as to denature the collagen into a solution form. Each of the samples was analyzed through use of Agilent HPLC and an SEC-4 gel filtration column to quantify the concentration of the protein in the gel. In the HPLC, thyroglobulin is eluted at 5.927 minutes.

T1 sequence (P02453 178-1191 limits assumed): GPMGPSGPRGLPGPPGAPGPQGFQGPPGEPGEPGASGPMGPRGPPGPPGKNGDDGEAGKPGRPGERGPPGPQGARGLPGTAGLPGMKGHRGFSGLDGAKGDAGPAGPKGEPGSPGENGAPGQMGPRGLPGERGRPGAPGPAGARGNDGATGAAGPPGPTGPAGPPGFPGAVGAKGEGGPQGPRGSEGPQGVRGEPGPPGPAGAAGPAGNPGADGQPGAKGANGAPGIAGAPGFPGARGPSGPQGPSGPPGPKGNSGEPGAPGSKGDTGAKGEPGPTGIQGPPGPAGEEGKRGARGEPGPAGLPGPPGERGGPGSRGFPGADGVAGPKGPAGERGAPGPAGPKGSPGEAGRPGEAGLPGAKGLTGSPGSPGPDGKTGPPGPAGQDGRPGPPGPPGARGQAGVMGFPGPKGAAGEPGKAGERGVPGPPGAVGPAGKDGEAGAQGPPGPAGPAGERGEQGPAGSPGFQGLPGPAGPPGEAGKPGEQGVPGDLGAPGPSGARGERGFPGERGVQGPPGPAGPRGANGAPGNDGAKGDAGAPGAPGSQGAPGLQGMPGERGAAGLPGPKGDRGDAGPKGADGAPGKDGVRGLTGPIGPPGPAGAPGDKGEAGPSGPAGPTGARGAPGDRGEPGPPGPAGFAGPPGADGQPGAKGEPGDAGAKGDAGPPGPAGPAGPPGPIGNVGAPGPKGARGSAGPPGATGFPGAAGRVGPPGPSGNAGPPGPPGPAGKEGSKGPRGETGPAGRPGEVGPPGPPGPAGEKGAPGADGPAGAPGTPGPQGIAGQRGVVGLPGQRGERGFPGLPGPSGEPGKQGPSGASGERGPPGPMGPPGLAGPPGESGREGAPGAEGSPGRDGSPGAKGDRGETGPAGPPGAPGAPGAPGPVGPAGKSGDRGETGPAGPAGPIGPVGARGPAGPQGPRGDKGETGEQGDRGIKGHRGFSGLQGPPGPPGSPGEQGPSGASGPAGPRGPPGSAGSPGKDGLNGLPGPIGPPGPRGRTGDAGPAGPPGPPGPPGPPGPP
T1 sequence (P02465 80-1117 limits assumed): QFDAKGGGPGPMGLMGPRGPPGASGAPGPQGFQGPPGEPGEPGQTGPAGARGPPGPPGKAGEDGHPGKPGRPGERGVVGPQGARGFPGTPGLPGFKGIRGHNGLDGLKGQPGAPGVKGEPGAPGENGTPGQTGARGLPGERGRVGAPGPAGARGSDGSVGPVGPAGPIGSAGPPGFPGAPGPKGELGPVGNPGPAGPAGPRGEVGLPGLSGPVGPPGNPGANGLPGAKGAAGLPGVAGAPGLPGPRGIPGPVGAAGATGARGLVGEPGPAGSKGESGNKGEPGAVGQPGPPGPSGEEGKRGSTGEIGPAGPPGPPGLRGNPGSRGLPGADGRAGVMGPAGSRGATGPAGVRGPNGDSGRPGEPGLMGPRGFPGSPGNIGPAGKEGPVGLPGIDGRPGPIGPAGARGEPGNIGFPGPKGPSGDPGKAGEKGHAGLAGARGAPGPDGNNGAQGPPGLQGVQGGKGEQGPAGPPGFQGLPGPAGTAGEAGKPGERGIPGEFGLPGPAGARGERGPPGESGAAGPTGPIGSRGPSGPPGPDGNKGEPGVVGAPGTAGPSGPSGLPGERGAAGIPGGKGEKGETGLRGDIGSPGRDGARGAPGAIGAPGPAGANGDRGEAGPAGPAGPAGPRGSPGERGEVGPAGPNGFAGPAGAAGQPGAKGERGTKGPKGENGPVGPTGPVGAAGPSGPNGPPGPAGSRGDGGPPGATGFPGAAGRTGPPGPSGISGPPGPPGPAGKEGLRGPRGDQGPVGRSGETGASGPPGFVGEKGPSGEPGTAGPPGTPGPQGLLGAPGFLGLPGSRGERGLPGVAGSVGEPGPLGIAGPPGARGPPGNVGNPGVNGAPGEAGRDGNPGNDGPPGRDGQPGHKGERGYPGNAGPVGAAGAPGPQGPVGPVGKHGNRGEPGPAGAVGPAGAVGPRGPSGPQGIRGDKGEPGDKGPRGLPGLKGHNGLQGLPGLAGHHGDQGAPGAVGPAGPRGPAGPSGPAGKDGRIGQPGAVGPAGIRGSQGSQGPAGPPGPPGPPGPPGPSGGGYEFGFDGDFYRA
T2 sequence (P02453 178-1191 limits assumed): as the sequence (P02453 178-1191 limits assumed) above
T2 sequence (P02465 80-1117 limits assumed): as the sequence (P02465 80-1117 limits assumed) above
T3 sequence (P02459 201-1214 limits assumed): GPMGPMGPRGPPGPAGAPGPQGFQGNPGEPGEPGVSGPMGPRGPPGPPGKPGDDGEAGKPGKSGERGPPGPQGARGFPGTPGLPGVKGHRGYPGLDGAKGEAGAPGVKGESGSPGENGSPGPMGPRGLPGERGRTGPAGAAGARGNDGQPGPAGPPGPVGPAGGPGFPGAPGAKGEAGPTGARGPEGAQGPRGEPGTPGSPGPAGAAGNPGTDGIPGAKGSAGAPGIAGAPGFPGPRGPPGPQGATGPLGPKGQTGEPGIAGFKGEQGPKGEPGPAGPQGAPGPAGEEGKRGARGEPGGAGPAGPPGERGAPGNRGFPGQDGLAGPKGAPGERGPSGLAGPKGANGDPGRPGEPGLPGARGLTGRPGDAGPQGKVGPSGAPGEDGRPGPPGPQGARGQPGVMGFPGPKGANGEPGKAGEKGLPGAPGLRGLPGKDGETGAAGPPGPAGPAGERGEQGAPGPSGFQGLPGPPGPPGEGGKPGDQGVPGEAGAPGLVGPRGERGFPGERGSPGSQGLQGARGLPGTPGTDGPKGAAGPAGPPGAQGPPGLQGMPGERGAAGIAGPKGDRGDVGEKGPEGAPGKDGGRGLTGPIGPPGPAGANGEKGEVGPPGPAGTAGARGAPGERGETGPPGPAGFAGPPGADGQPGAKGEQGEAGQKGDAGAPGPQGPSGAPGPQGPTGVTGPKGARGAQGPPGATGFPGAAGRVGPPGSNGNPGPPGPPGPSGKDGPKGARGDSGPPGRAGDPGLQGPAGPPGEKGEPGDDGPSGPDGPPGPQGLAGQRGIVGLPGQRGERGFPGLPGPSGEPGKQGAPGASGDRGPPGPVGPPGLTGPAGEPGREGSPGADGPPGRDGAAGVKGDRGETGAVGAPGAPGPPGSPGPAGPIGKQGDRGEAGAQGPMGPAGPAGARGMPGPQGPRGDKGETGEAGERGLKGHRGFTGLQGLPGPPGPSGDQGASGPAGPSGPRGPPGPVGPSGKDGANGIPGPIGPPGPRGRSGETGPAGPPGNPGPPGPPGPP
T4 sequence (P02465 80-1117): as the sequence (P02465 80-1117 limits assumed) above
T4 sequence (P02453 162-1217): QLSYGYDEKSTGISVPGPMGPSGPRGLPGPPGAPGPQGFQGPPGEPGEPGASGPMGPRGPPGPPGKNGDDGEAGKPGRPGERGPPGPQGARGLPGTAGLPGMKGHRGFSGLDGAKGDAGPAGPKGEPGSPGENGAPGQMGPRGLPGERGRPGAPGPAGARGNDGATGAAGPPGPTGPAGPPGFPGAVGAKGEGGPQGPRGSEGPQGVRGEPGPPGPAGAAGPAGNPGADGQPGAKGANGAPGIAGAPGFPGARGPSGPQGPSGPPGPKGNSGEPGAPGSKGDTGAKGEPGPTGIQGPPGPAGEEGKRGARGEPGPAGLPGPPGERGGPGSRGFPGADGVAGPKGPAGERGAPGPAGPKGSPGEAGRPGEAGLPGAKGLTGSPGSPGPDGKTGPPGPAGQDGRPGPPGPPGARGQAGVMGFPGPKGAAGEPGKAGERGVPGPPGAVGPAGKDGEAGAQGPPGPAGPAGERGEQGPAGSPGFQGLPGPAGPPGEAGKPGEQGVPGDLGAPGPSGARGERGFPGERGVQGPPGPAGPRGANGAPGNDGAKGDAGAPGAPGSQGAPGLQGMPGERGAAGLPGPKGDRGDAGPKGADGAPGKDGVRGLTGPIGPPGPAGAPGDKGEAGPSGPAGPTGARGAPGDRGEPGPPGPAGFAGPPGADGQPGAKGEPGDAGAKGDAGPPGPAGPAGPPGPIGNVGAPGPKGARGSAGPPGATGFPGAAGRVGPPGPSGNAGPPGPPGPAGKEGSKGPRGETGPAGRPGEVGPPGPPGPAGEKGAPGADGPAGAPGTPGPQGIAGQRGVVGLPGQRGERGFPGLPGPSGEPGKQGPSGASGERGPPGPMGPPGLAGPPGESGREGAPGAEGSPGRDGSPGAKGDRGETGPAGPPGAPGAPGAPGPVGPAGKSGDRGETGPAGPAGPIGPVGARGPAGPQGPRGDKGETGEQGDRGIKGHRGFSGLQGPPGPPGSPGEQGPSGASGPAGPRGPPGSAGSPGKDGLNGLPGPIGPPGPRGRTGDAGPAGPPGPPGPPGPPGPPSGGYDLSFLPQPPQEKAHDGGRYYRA

Molecule: OC[C@H]1O[C@H](O[C@H]2[C@H](O)[C@@H](O)C(O)O[C@@H]2CO)[C@H](O)[C@@H](O)[C@@H]1O (mixture of isomers) [maltose]
suppression of gelation of collagen (fibrillogenesis time) [1]: suppressed in a concentration-dependent manner

fibrillogenesis suppressing effect (fibrillogenesis time) [2]: comparable to that of the monosaccharide
Molecule: OC[C@H]1O[C@H](O[C@H]2[C@H](O)[C@@H](O)[C@@H](O[C@H]3[C@H](O)[C@@H](O)[C@@H](O[C@H]4[C@H](O)[C@@H](O)C(O)O[C@@H]4CO)O[C@@H]3CO)O[C@@H]2CO)[C@H](O)[C@@H](O)[C@@H]1O (some centres unmarked) [Maltotetraose, maltotetraose]

Molecule: O=C(CO)[C@@H](O)[C@H](O)[C@H](O)CO [fructose]
suppression of gelation of collagen (fibrillogenesis time) [1]: suppressed in a concentration-dependent manner

Molecule: O=C[C@H](O)[C@@H](O)[C@H](O)[C@H](O)C(=O)O [glucuronic acid]
gelation suppressing effect [3]: low gelation suppressing effect as compared to glucose

Molecule: OC[C@H]1O[C@H](OC[C@H]2O[C@H](O[C@]3(CO)O[C@H](CO)[C@@H](O)[C@@H]3O)[C@H](O)[C@@H](O)[C@@H]2O)[C@H](O)[C@@H](O)[C@H]1O [raffinose]
suppression of gelation of collagen (fibrillogenesis time) [1]: delayed as compared to the case of adding no sugar

fibrillogenesis time of the collagen solution (KS collagen solution): delayed
suppression of gelation of collagen (fibrillogenesis time) [1]: hardly confirmed
Molecule: OC[C@H]1O[C@H](OC[C@H]2O[C@H](OC[C@H]3O[C@H](O[C@]4(CO)O[C@H](CO)[C@@H](O)[C@@H]4O)[C@H](O)[C@@H](O)[C@@H]3O)[C@H](O)[C@@H](O)[C@H]2O)[C@H](O)[C@@H](O)[C@H]1O [stachyose]

influence on gelation of collagen solution (Type II atelocollagen): suppressed gelation
influence on gelation of collagen solution (Type I native collagen): suppressed gelation
influence on gelation of collagen solution (Shark atelocollagen): suppressed gelation
influence on gelation of collagen solution (Type III atelocollagen): suppressed gelation
gelation suppressing effect [3]: high gelation suppressing effect
influence on gelation of collagen solution (Type I atelocollagen): suppressed gelation
Molecule: OC[C@H]1O[C@@](CO)(O[C@H]2O[C@H](CO)[C@@H](O)[C@H](O)[C@H]2O)[C@@H](O)[C@@H]1O [sucrose]
influence on gelation of collagen solution [4]: delayed in a sucrose concentration-dependent manner
suppression of gelation of collagen (fibrillogenesis time) [1]: suppressed in a concentration-dependent manner

fibrillogenesis suppressing effect (fibrillogenesis time) [2]: substantially no delay
Molecule: maltopentaose

Molecule: thyrogloblin: high molecular weight protein (669 kDa) used as drug in sucrose/atelocollagen formulation
period of fast release after the injection [5]: ≤ 3 h

— US9301917B2, “Sustained-release pharmaceutical composition” (Kyoto University, priority 2010, dated 2016)
